Key:
[1] = molecular target: RET kinase (Homo sapiens, UniProt P07949); test: RET kinase biochemical assay; conditions: read-out: RET (IC50), mean of at least n = 3
[2] = molecular target: TRKA (Homo sapiens, UniProt P04629); test: TRKA kinase biochemical assay; conditions: read-out: TRKA (IC50), mean of at least n = 3
[3] = system: LC-2/ad cells (RET-CCDC6 fusion-driven NSCLC); test: Cell viability, RET-driven cell line; format: cell-based; conditions: read-out: LC-2/ad (EC50)
[4] = system: KM-12 cells; test: Cell viability, TRKA-driven matched control; format: cell-based; conditions: read-out: KM-12 (EC50)
[5] = system: A549 cells; test: Cell viability, cytotoxic control; format: cell-based; conditions: read-out: A549 (EC50)

RET kinase, sequence (P07949 29-1114): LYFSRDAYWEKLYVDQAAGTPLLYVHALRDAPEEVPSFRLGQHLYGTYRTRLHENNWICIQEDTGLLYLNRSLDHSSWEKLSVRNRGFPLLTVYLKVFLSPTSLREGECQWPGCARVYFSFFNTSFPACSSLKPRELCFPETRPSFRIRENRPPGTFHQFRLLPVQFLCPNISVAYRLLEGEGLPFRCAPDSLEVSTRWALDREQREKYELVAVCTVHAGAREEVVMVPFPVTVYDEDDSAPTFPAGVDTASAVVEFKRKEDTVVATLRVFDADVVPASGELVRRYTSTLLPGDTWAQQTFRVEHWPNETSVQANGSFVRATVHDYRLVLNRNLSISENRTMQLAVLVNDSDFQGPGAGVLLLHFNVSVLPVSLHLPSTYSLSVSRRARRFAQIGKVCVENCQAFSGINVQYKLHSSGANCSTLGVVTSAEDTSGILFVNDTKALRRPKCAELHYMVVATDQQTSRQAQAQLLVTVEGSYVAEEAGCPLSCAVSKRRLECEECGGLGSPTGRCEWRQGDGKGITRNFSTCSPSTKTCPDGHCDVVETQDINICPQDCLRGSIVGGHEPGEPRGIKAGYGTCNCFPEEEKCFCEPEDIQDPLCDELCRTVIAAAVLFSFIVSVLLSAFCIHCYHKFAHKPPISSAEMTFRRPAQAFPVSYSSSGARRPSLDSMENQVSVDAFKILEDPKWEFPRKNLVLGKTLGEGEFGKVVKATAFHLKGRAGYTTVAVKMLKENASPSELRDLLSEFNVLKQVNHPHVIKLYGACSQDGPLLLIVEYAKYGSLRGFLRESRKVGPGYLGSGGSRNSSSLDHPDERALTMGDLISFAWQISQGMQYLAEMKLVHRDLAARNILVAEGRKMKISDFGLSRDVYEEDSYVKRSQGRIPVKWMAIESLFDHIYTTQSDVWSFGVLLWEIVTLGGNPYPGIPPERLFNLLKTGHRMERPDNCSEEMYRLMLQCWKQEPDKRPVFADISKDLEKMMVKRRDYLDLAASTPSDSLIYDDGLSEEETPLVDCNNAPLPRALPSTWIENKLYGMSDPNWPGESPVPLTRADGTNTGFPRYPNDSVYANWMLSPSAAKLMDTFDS
TRKA, sequence (P04629 33-796): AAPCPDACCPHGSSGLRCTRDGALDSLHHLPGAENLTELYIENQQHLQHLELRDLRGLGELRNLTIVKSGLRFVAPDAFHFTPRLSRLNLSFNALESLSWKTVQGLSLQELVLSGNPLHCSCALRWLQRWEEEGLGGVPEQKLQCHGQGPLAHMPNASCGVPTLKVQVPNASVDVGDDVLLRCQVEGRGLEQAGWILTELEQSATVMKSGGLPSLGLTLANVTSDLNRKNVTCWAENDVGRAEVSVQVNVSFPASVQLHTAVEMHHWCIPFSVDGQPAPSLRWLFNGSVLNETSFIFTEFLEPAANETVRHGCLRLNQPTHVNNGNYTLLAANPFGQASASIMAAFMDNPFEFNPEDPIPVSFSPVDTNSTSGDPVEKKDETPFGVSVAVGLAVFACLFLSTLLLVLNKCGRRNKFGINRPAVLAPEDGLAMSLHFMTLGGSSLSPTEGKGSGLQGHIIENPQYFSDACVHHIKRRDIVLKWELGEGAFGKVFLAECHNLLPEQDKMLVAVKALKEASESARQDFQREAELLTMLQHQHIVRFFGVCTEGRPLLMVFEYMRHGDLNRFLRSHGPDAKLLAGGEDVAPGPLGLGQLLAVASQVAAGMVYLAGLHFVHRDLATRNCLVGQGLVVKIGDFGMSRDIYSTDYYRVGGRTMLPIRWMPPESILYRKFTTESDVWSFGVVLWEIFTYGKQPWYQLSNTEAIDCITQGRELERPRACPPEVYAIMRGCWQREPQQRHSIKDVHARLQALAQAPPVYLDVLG

Row | SMILES | IC50 [1] [µM] | IC50 [2] [µM] | EC50 [3] [µM] | EC50 [4] [µM] | EC50 [5] [µM]
1 | Cn1nc(-c2ccccc2)c2c(N)ncnc21 [4a] | 6.82 ± 2.22 | – | – | – | –
2 | Nc1ncnc2[nH]ncc12 [fragment 1, pyrazoloadenine] | 9.2 | 57.1 | 1.47 | 1.73 | 3.02

Source: PMC9969764 (ChemMedChem, 2021)
